This experiment has as its target T1, recombinant human estrone sulfatase (Homo sapiens, UniProt P08842).
T1 construct: made in house; host or cells: CHO (Chinese hamster ovary) cells
T1 sequence (P08842 22-583): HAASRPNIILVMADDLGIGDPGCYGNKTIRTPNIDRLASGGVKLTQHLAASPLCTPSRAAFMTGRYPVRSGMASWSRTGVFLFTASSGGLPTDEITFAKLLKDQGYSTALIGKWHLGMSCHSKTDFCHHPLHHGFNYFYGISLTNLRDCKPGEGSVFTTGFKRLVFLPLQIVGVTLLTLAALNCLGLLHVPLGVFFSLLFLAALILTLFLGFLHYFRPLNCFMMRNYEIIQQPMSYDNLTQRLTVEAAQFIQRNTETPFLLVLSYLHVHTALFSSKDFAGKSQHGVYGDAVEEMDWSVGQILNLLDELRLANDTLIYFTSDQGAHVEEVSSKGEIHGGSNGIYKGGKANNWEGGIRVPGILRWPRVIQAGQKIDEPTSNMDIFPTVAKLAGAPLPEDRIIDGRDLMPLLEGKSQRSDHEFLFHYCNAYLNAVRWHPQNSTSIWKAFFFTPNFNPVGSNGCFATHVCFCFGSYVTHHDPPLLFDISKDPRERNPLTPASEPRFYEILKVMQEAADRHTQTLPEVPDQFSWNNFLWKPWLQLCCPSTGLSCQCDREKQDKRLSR
Kind of experiment: Estrone sulfatase (steroid sulfatase) inhibition test. As to conditions: test compound 1 μM; [6,7-3H] estrone sulfate 3.3 nmol/L; pH 7; 1 hour at 37° C.; read-out: Inhibitory activity against estrone sulfatase, Inhibition % (1 μM). It is filed as biochemical. The protocol:
Estrone Sulfatase (Steroid Sulfatase) Inhibition Test:
[6,7-^3H] Estrone sulfate (final concentration, 3.3 nmol/L; 300,000 dpm/tube), recombinant human estrone sulfatase (33 ng/tube) and an estra-1,3,5(10),16-tetraene derivative (final concentration, 1 μmol/L) were added to a phosphate buffer (pH 7; final volume, 0.15 mL) containing 0.25 mol/L of sucrose and 0.04 mol/L of nicotinamide, and allowed to enzymatically react for 1 hour at 37° C. The recombinant human estrone sulfatase was obtained by transforming a human estrone sulfatase gene into CHO (Chinese hamster ovary) cells and expressing it in the cells, and used after partial purification. After completion of the enzyme reaction, the reaction solution was mixed with toluene (0.5 mL), followed by stirring, and the mixture was centrifuged for 5 minutes at 9,000 rpm. Thereafter, the toluene extraction layer was separated and the radioactivity of the resulting [^3H]-estrone was measured with a liquid scintillation counter. The measurement was carried out by duplication, and the fluctuation within the assay was 10% or less. An enzyme reaction in the absence of the test compound was carried out at the same time. The activity of the test compound to inhibit estrone sulfatase was calculated by the following formula.
Inhibitory activity against estrone sulfatase (%)=100−(100×(A/B)) […]

Molecules are shown by their SMILES.

The results in this text go back to patent US6638923B2, “Estra-1,3,5(10),16-tetraene derivatives” (Kyowa Hakko Kogyo Co., Ltd., priority 1999, dated 2003).

With `C[C@]12CC[C@@H]3c4ccc(O)cc4CC[C@H]3[C@@H]1CC=C2C(=O)O` [Compound 1, 3-hydroxyestra-1,3,5(10), 16-tetraene-17-carboxylic acid], the inhibition (commonly the percentage by which the read-out fell short of the control) at 1 µM is 48%.
